In ChEMBL document CHEMBL4680112, “Synthesis and Structure-Activity Relationships of Inhibitors That Target the C-Terminal MEEVD on Heat Shock Protein 90” (ACS Med Chem Lett, 2018):
Calls of active or inactive are those of the source. The rule behind the calls is not given here. Non-standard residues stand in square brackets, D forms with d. Residues, ends and D or L forms follow the SMILES beside them.

target: T1, Heat shock protein HSP 90-beta (Homo sapiens, UniProt P08238); test: Potency index, ratio of Kawakami-peptide IC50 to LB51 IC50 C-terminal HSP90beta (527 to 724 residues) (unknown origin) interaction with CYP40 measured after 30 mins by Alphascreen assay; conditions: not given
T1 sequence (P08238 whole entry, the tested form may be a part): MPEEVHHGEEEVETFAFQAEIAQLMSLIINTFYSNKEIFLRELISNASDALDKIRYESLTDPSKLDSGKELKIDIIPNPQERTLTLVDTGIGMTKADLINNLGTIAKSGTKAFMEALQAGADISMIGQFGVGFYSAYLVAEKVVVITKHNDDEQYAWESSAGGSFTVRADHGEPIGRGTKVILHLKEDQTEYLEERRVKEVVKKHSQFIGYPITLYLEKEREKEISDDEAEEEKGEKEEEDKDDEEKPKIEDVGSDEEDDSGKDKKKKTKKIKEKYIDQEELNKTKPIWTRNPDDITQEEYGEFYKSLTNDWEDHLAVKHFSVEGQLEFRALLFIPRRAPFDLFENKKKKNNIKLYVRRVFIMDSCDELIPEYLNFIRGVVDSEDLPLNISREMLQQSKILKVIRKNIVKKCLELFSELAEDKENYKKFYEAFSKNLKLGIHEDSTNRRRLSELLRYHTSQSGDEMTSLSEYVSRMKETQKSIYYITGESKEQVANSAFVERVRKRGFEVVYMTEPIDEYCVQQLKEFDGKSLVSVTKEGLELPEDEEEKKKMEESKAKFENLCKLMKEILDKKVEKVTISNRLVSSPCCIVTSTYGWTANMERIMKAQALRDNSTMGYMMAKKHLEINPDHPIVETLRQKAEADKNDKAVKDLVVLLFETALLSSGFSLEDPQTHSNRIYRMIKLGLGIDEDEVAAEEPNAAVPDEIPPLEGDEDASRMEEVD

Ratio IC50 | SMILES
> 10 | NCCCC[C@@H]1NC(=O)[C@H](Cc2ccccc2)NC(=O)[C@H](Cc2ccc(O)cc2)NC(=O)[C@H](CO)NC(=O)[C@H](CC(N)=O)NC1=O (cyclo(KNSYF))

target: T1, Heat shock protein HSP 90-beta; test: Inhibition of C-terminal HSP90beta (527 to 724 residues) (unknown origin) interaction with CYP40 measured after 30 mins by Alphascreen assay; conditions: not given

IC50 [µM] | SMILES
50 | CC[C@H](C)[C@H](NC(=O)[C@H](CCCNC(=N)N)NC(=O)[C@H](C)NC(=O)[C@H](Cc1ccc(O)cc1)NC(=O)[C@H](C)NC(=O)[C@@H](N)CCCCN)C(=O)NCC(=O)N[C@@H](CC(N)=O)C(=O)N[C@@H](CO)C(=O)N[C@@H](Cc1ccc(O)cc1)C(=O)N[C@@H](Cc1ccccc1)C(=O)N[C@@H](CCCCN)C(=O)O

target: T1, Heat shock protein HSP 90-beta; test: Inhibition of C-terminal HSP90beta (527 to 724 residues) (unknown origin) interaction with CYP40 at 1 to 25 uM measured after 30 mins by AlphaLISA assay; conditions: dose 1-25 µM

inhibition | SMILES
inactive | NCCCC[C@@H]1NC(=O)[C@H](Cc2ccccc2)NC(=O)[C@H](Cc2ccc(O)cc2)NC(=O)[C@@H](CO)NC(=O)[C@H](CC(N)=O)NC1=O (cyclo(FKN[dS]Y))
inactive | NCCCC[C@@H]1NC(=O)[C@H](Cc2ccccc2)NC(=O)[C@H](Cc2ccc(O)cc2)NC(=O)[C@H](CO)NC(=O)[C@@H](CC(N)=O)NC1=O (cyclo(FK[dN]SY))
inactive | NCCCC[C@@H]1NC(=O)[C@@H](Cc2ccccc2)NC(=O)[C@H](Cc2ccc(O)cc2)NC(=O)[C@H](CO)NC(=O)[C@H](CC(N)=O)NC1=O (cyclo(KNSY[dF]))

Continued, compound first:

SMILES | inhibition
C[C@H]1NC(=O)[C@H](CCCCN)NC(=O)[C@H](Cc2ccccc2)NC(=O)[C@H](Cc2ccc(O)cc2)NC(=O)[C@H](CO)NC1=O | inactive
C[C@@H]1NC(=O)[C@H](CC(N)=O)NC(=O)[C@H](CCCCN)NC(=O)[C@H](Cc2ccccc2)NC(=O)[C@H](Cc2ccc(O)cc2)NC1=O (cyclo(AYFKN)) | Active
NCCCC[C@@H]1NC(=O)[C@H](Cc2ccccc2)NC(=O)[C@H](Cc2ccc(O)cc2)NC(=O)[C@H](CO)NC(=O)[C@H](CC(=O)O)NC1=O (cyclo(DSYFK)) | inactive
NCCCC[C@@H]1NC(=O)[C@H](Cc2ccccc2)NC(=O)[C@H](Cc2ccc(O)cc2)NC(=O)[C@H](CO)NC(=O)[C@H](Cc2ccccc2)NC1=O (cyclo(FKFSY)) | Active
CC(C)C[C@@H]1NC(=O)[C@H](CCCCN)NC(=O)[C@H](Cc2ccccc2)NC(=O)[C@H](Cc2ccc(O)cc2)NC(=O)[C@H](CO)NC1=O (cyclo(FKLSY)) | inactive
